Experimental data published in patent publication US20230143751A1, “Aromatic Compound And Use Thereof In Preparing Antineoplastic Drugs” (Shanghai Zheye Biotechnology Co. Ltd., priority 2020, published 2023).
Where two headings read alike, the source gives them in different places.

What was measured:
[1] = Acute toxicity test, single oral dose in SD rats; assay type: in vivo; settings: SD rats, single oral gavage, 500, 1000, 2000 mg/kg
Procedure: (§1) Test samples: Compound 3-2, and Compound 3-6.
(§2) Animal species and number: SD rat; 6 animals per group (half male and half female).
(§3) Administration mode: oral administration by gavage.
Animal grouping and administration dose: vehicle blank group, Compound 3-2 group (500 mg/kg, 1000 mg/kg, 2000 mg/kg), Compound 3-6 group (500 mg/kg, 1000 mg/kg, 2000 mg/kg).
Administration frequency: once.
(§4) Death, morbidity, respiration, secretions, feces, and diet, drinking situation and so on were observed, and the changes in body weight of the rats during the administration period were recorded. The contents of detailed clinical observation included but were not limited to behavioral activity, skin, coat, eyes, ears, nose, abdomen, external genitalia, anus, extremities, feet, and respiration. The animals in each group were euthanized at the end of observation period, and all animals were dissected and subjected to gross observation.

[2] = Safety test for repeated administration for 14 days in SD rats; assay type: in vivo; settings: oral gavage once a day for 14 days, 50, 150, 400 mg/kg
Procedure: as §1, §2, §3
Animal grouping and administration dose: vehicle blank group, Compound 3-2 group (50 mg/kg, 150 mg/kg, 400 mg/kg), Compound 3-6 group (50 mg/kg, 150 mg/kg, 400 mg/kg).
Administration frequency: once a day for 14 days.
as §4, with “General clinical observations were performed 2 times a day (once in the morning and once in the afternoon) during the test period. Death,” for “Death,”, “of administration” for “of observation”

MIA PaCa-2 cells = test: Cell proliferation activity of MIA PaCa-2 by CellTiter-Glo reagent; assay type: cell-based; settings: for IC50: Homo sapiens, MIA PaCa-2
How it was run: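 Cells seeded at 2000-3000/well, incubated overnight, then exposed to compound gradient dilutions in DMEM for 72 h at 37° C, 5% CO2. Viability read by CellTiter-Glo luminescence; IC50 fitted from the proliferation inhibition curve.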

[3] = tested on: NCI-H358-derived xenograft tumor; test: Pharmacodynamics study of NCI-H358-derived xenograft tumor model, combination with Afatinib or Trametinib (test 10); assay type: in vivo, nude mice; settings: i.g. QD×21 days, 3-2 10 mg/kg, Afatinib 10 mg/kg, Trametinib 0.1 mg/kg
Procedure: Animal species and number: Balb/c Nude; 6 animals per group. Test samples: […] Test groups: blank solvent control group; […] NCI-H358 tumor cells in logarithmic growth phase were cultured in vitro and collected, and inoculated subcutaneously into the right back of nude mice at a quantity of 5×10^6 cells/each. When the tumor volume reached 150-300 mm^3, the tumor-bearing nude mice were randomly grouped. Subsequently, the animals in each group were administered, and the day of the first administration was defined as day 1 of the test. Administration frequency: once a day. General state observation: observation time and frequency: once a day; observation indexes or contents: including but not limited to administration location, appearance and signs, general behavioral activities, mental status, death and other abnormal performance of the animals. The animals were euthanized at the end of the test. Tumor volume calculation: V=½×long diameter×short diameter^2 (mm^3).

[4] = tested on: MIA PaCa-2-derived xenograft tumor; test: Pharmacodynamics test of MIA PaCa-2-derived xenograft tumor model in nude mice (test 6); assay type: in vivo
Procedure: (§5) Animal species and number: Balb/c Nude; 6 animals per group.
Test samples: Compound 3-2, Compound 3-6, Compound 3-20, Compound 3-12M.
Test groups: blank solvent control group; Compound 3-2 (10 mg/kg, QD×15 days), Compound 3-6 (10 mg/kg, QD×15 days), Compound 3-20 (10 mg/kg, QD×15 days), Compound 3-12M (10 mg/kg, QD×15 days).
(§6) Animal model establishment: MIA paca-2 tumor cells in logarithmic growth phase were cultured in vitro and collected, and inoculated subcutaneously into the right back of nude mice at a quantity of 5×10^6 cells/each. When the tumor volume reached 150-300 mm^3, the tumor-bearing nude mice were randomly grouped. Subsequently, the animals in each group were administered, and the day of the first administration was defined as day 1 of the test.
Administration route and frequency: oral administration by gavage; once a day.
(§7) General state observation: observation time and frequency: once a day; observation indexes or contents: including but not limited to administration location, appearance and signs, general behavioral activities, mental status, death and other abnormal performance of the animals. The animals were euthanized at the end of the test.
Tumor volume calculation: V=½×long diameter×short diameter^2 (mm^3). Tumor growth inhibition rate TGI (%) is used to evaluate the tumor inhibition efficacy of the compounds. TGI (%)=[1−(mean tumor volume in treatment group at the end of administration−mean tumor volume in treatment group at the beginning of administration)/(mean tumor volume in control group at the end of administration−mean tumor volume in control group at the beginning of administration)]×100%.

[5] = tested on: MIA PaCa-2-derived xenograft tumor; test: Pharmacodynamic effect study of MIA PaCa-2-derived xenograft tumor model (test 11); assay type: in vivo, nude mice; settings: MIA PaCa-2 xenograft, 20 mg/kg i.g. QD×21 days
Procedure: as §5
Test samples: Compound 3-2, and Compound TM-1.
Test groups: blank solvent control group;
Compound 3-2 (20 mg/kg, i.g., QD×21 days);
Compound TM-1 (20 mg/kg, i.g., QD×21 days).
as §6, with “PaCa-2” for “paca-2”
Administration frequency: once a day.
as §7
Tumor volume calculation: V=½×long diameter×short diameter^2 (mm^3).

[6] = Analysis regarding therapeutic safety window; settings: in vivo, oral, 5 days

C=CC(=O)N1CCN(c2nc(=O)n(-c3c(C)ccnc3C(C)C)c3nc(-c4ccccc4C=C)c(Cl)cc23)[C@@H](C)C1 [Compound 3-2]
death or morbidity after single dose (in words) [1]: No animals in each group were dead or close to death | MTD ([1]; both sexes, rat, in vivo, read-out: maximum tolerated dose (MTD)): ≥ 2000 mg/kg | water and food intake, activity and body weight during the administration period (in words) [2]: no significant abnormality was showed | anti-cell proliferation activity against KRAS G12C mutant type cells MIA PaCa-2 (in words) (MIA PaCa-2 cells; 72 h, CellTiter-Glo): significant anti-cell proliferation activity | IC50 (MIA PaCa-2 cells; 72 h, CellTiter-Glo, read-out: IC50 value of cell proliferation inhibitory activity of the compound on MIA PaCa-2): < 50 nM | IC50 (MIA PaCa-2 cells; test 12, method of test 2, read-out: IC50 of proliferation inhibitory activity of the compound on MIA Paca-2 cell line): ≤ 15 nM | proliferation inhibitory activity on MIA Paca-2 cell line compared with Compound TM-2 (in words) (MIA PaCa-2 cells; test 12): remarkable better | Tumor inhibition rate (%) [3]: ++ (“++” represents a tumor inhibition rate of 130%˜200%) | inhibition effect on the growth of subcutaneously transplanted tumors derived from pancreatic cancer MIA paca-2 cells in nude mice (in words) ([4]; 10 mg/kg QD×15 days): significant inhibition effect | Tumor inhibition rate (%) ([4]; MIA PaCa-2 xenograft, nude mice, 10 mg/kg oral gavage QD×15 days): +++ (“+++” represents a tumor inhibition rate of >80%) | Tumor inhibition rate (%) [5]: +++ (“+++” represents a tumor inhibition rate of >140%) | therapeutic safety window: ratio of toxic dose to effective dose [6]: greater than 80
